From patent US9474759B2 (priority 2011, dated 2016)

Experiments:
[1] = PK and oral bioavailability studies in rats; details: 20 mg/Kg (body weight), IV or PO
HAV [2] = assay: Cell-based screening, HAV (Example 2); parameters: species or system hepatitis A virus; details: Picornaviridae; read-out: Inhibition [ED50 (μM)] against various viruses: Picornavirus, HAV
Experimental: (§1) 3. Cell-based screening of inhibitor. The effects of each inhibitor on the viral replication were examined. The list of viruses and corresponding cell lines are listed above in Table 2. Briefly, confluent cells were inoculated with virus at a MOI of 5 or 0.05 for 1 hr, and medium was replaced with medium containing mock-medium or each compound (up to 100 μM). The virus infected cells were further incubated for up to 96 hrs, and the replication of virus was measured by TCID50 assay with the 10-fold dilution of each sample used for virus titration (Reed and Muench, 1938). In some viruses, the virus protein and genome expression levels were detected by Western blot analysis and real-time qRT-PCR, respectively, as described below. The IC50s of the compounds were calculated.

MHV = assay: Cell-based screening, MHV in CCL-9.1 cells (Example 2); parameters: species or system mouse hepatitis virus; details: Murine coronavirus; CCL-9.1 cells; read-out: Inhibition [ED50 (μM)] against various viruses: Coronavirus, MHV
[3] = target: Norwalk virus 3CL protease (NV3CL protease), recombinant (Norovirus, UniProt Q83883); assay: Recombinant NV protease FRET inhibition assay (Edans-[…]-Dabcyl substrate), FIG. 4; type: biochemical; details: 2.5 μM enzyme, 300 nM Edans-EPDFHLQGPEDLAK-Dabcyl, 30 min incubation, 30° C., pH 8.0
Experimental: After a 30 minute incubation period, 5 μL of 12 μM Edans-[…]-Dabcyl (SEQ ID NO:1) substrate in DMSO was then added and the increase in fluorescence was monitored for 30 minutes at an excitation and emission wavelength of 360 and 460 nm, respectively. Using a HORIBA FluoroMax 4 spectrofluorometer. Hydrolysis curves were linear. The final enzyme and substrate concentrations were 2.5 μM and 300 nM, respectively. […] Furthermore, the nature of the cap was also important (compare, for example, inhibitors A and D).

FIPV = assay: Cell-based screening, FIPV in CRFK cells (Example 2); parameters: species or system feline infectious peritonitis virus; details: Alphacoronavirus 1; CRFK cells; read-out: Inhibition [ED50 (μM)] against various viruses: Coronavirus, FIPV
Experimental: as §1

[4] = system: 3CLpro of NV, MD145, MNV-1; type: biochemical, norovirus; details: optimized FRET-based protease assay
FCV = assay: Cell-based screening, FCV in CRFK cells (Example 2); details: Feline calicivirus; CRFK cells; read-out: Inhibition [ED50 (μM)] against various viruses: Calicivirus, FCV
Experimental: as §1

FIPV-1146 = assay: Combination treatment of CA074-Me and GC373 on FIPV-1146 replication, MacSynergy II; type: cell-based, feline coronavirus; details: GC373 alone at 0.05 μM, FIPV-infected CRFK cells
Experimental: The CRFK cells were incubated with GC373 (0.02˜0.2 μM), CA074-Me (0.5˜5 μM), or the combinations of GC373 (0.02˜0.2 μM) and CA074-Me (0.5˜5 μM) for 1 hr at 37° C. prior to inoculation of FIPV-1146 at an MOI of 0.05. After 24 hrs of incubation, virus replication was assessed with virus titration using the TCID50 method. Drug-drug interactions were analyzed by the three-dimensional model of Prichard and Shipman, using the MacSynergy II software at 95% confidence limits. Theoretical additive interactions were calculated from the dose-response curve for each compound individually, and the calculated additive surface was subtracted from the experimentally determined dose-response surface to give regions of synergistic or antagonistic interactions. The resulting surface appears as horizontal plane at 0% of synergy if the interactions of two compounds are additive. Any peak above or below this plane indicates synergy or antagonism, respectively.

[5] = target: TGEV 3CLpro (full-length, 6 His, recombinant) (Porcine transmissible gastroenteritis coronavirus strain Purdue, UniProt P0C6V2); assay: biochemical; parameters: species or system transmissible gastroenteritis virus (strain Miller)
EV71 = assay: Cell-based screening, EV71 in Vero cells (Example 2); parameters: species or system enterovirus 71; details: Enterovirus A, EV71; Vero cells; read-out: Inhibition [ED50 (μM)] against various viruses: Picornavirus, EV71
Experimental: as §1

[6] = system: norovirus (NV replicon-harboring HG23 cells); assay: NV replicon-harboring cells (HG23), NV genome levels by qRT-PCR (Example 1); type: cell-based, Norwalk virus; details: read-out: ED50, effective dose that inhibits 50% of norovirus replication, NV genome levels at 24 hrs post-treatment
HAV 3Cpro = HAV 3Cpro (Human hepatitis A virus genotype IB, UniProt P08617); assay: Optimized FRET protease assay, HAV 3Cpro (Example 3); type: biochemical
Experimental: Fluorogenic substrates with Edans and Dabcyl as a donor and quencher pair were purchased from Bachem (coronavirus substrate) or synthesized by GenScript. The viral proteases and the corresponding fluorogenic substrates are listed in Table 5, along with their sources.
Stock solutions (10 mM) of the substrates and the compounds were prepared in dimethyl sulfoxide (DMSO) and diluted in assay buffer. The assay buffer comprised 20 mM HEPES buffer containing NaCl (0 mM for HAV 3Cpro and 200 mM for all other proteases), 0.4 mM EDTA, Glycerol (60% for NV and MD145 3CLpro and 30% for TGEV and 229E 3CLpro), and 6 mM (NV and MD145 3CLpro and HAV 3Cpro)_or 4 mM (all other proteases) dithiothreitol (DTT) at pH 6 (coronavirus 3CLpro) or 8 (all other proteases). Each protease was mixed with serial dilutions of each compound or with DMSO in 25 μl of assay buffer and incubated at 37° C. for 30 min, followed by the addition of 25 μl of assay buffer containing substrate. Fluorescence readings were obtained using an excitation wavelength of 360 nm and an emission wavelength of 460 nm on a fluorescence microplate reader (FLx800; Biotek, Winooski, Vt.) at 1 h following the addition of substrate. The relative fluorescence units (RFU) were determined by subtracting background values (substrate-containing well without protease) from the raw fluorescence values. […]

[7] = system: murine norovirus-1 (MNV-1); assay: MNV-1 replication in RAW267.4 cells, TCID50 (Example 1); type: cell-based; details: Norwalk virus, MOI 2, TCID50 assay, read-out: ED50, replication of murine norovirus (MNV)
[8] = target: SARS-CoV 3CLpro (codon-optimized, N-terminal 6 His, recombinant) (Severe acute respiratory syndrome coronavirus, UniProt P0C6X7); assay: biochemical
HAV [9] = assay: Cell culture system, HAV replication in FRhK-4 cells (Example 3); type: cell-based, hepatitis A virus

Sequence of TGEV 3CLpro (full-length, 6 His, recombinant) (P0C6V2 2879-3180): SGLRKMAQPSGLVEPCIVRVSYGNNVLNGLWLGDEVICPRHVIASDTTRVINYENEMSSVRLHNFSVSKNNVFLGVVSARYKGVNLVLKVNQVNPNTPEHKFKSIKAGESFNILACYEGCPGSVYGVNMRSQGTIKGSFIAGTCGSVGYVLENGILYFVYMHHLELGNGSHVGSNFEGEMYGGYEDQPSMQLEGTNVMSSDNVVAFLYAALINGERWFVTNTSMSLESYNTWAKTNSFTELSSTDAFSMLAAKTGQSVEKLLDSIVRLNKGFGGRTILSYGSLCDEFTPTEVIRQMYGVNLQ
Sequence of HAV 3Cpro (P08617 1520-1738): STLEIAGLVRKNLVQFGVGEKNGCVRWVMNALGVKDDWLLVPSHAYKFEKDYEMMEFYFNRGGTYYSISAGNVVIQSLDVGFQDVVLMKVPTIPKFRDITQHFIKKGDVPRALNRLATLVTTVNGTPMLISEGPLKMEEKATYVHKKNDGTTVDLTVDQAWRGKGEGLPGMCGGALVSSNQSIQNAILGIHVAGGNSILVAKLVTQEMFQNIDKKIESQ
Sequence of Norwalk virus 3CL protease (NV3CL protease), recombinant (Q83883 1101-1281): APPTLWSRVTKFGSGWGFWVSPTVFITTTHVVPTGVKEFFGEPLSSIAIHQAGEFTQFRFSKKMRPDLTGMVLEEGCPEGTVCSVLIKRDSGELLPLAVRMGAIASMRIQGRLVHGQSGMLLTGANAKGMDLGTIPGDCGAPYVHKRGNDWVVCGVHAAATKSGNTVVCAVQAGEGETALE

Question: With `CC(C)C[C@H](NC(=O)OCc1ccccc1)C(=O)N[C@H](C=O)C[C@@H]1CCNC1=O` [GC373] as the compound, how does the “oral bioavailability, % F” value [1] read?
Answer: 3 % F

Question: What about the EC50 (HAV [2]) of the same compound?
Answer: > 100 µM

Question: What about the EC50 (MHV) of the same compound?
Answer: 2 µM

Question: And the IC50 [3]?
Answer: 1820 nM

Question: What about the EC50 (FIPV) of the same compound?
Answer: 0.3 µM

Question: And the “effect on the activity of 3CLpro of NV, MD145, MNV-1 (in words)” value [4]?
Answer: highly effective

Question: And the EC50 (FCV)?
Answer: 65 µM

Question: And the “reduction of virus titers” value (FIPV-1146)?
Answer: 0.5 log10

Question: And the IC50 [5]?
Answer: 990 ± 120 nM

Question: And the EC50 (EV71)?
Answer: 11 µM

Question: And the EC50 [6]?
Answer: 2100 nM

Question: What about the “inhibitory effect on HAV 3Cpro (in words)” value (HAV 3Cpro) of the same compound?
Answer: all viral proteases except HAV 3Cpro

Question: What about the EC50 [7] of the same compound?
Answer: 5500 nM

Question: What about the IC50 [8] of the same compound?
Answer: 3480 ± 1590 nM

Question: And the “effectiveness against the replication of HAV in cells (in words)” value (HAV [9])?
Answer: no or weak effectiveness
